Experimental data from patent US20260263553A1, “METHODS OF TREATING A LOCALIZED INFECTION WITH LOCALLY ADMINISTERED ANTIBIOTICS” (Osteal Therapeutics, Inc., priority 2023, published 2026).

Key:
[1] = in vivo; cited from earlier work
[2] = instillation of 50,000-100,000 mcg/mL once or twice daily into the joint space; cited from earlier work
common PJI organisms = assay: Minimum biofilm eradication concentration (MBEC); assay type: cell-based; details: multiple common PJI organisms
Excerpt: The formation of biofilm, a frequent occurrence in infected wounds with a medical device in situ such as PJI, BII, or FRI, begins early after onset of infection and provides an additional mechanism of resistance to antibiotic therapy. It is well established that the organisms in a mature biofilm structure, formed in a matter of days or a few weeks, are not susceptible to common antibiotics at the typical MIC of planktonic counterparts. […] The concentration at which eradication of an organism in a biofilm is accomplished is known as the minimum biofilm eradication concentration (MBEC) for the specific antimicrobial agent and organism tested. MBEC is not the same for all antimicrobial agents used to treat the same organism, nor is it the same for one antimicrobial agent applied to different strains or organisms.

[3] = Serum concentrations during 7-day local irrigation of the infected joint (PJI clinical investigation); assay type: in vivo, human; details: daily dose 2.6 g at 2,500 mcg/mL by irrigation for 7 days
Procedure: Irrigation of vancomycin and tobramycin within the manufacturer's recommended systemic dose for the treatment of PJI has been investigated clinically. A daily dose of 2.6 g vancomycin at a concentration of 2,500 mcg/mL and a daily dose of 80 mg of tobramycin at 1,600 mcg/mL were administered by irrigation to the infected joint for 7 days following stage one surgery of a two-stage exchange arthroplasty treatment. […] The serum concentrations of vancomycin over a 7-day period for 37 human subjects who received local irrigation of 50 cc at a concentration of 2,500 mcg/mL intermittently are shown in FIG. 6.

SMILES | maximum safe level, peak serum concentrations [1] [µg/mL] | sustained trough levels associated with toxicity [1] [µg/mL] | serum concentrations [2] | MBEC (common PJI organisms) | maximum safe level, trough serum concentrations [1] [µg/mL] | serum concentration levels [3]
NC[C@H]1O[C@H](O[C@H]2[C@H](O)[C@@H](O[C@H]3O[C@H](CO)[C@@H](O)[C@H](N)[C@H]3O)[C@H](N)C[C@@H]2N)[C@H](N)C[C@@H]1O [tobramycin] | 10 | > 2 | – | – | – | –
CN[C@H](CC(C)C)C(=O)N[C@H]1C(=O)N[C@@H](CC(N)=O)C(=O)N[C@H]2C(=O)N[C@H]3C(=O)N[C@H](C(=O)N[C@H](C(=O)O)c4cc(O)cc(O)c4-c4cc3ccc4O)[C@H](O)c3ccc(c(Cl)c3)Oc3cc2cc(c3O[C@@H]2O[C@H](CO)[C@@H](O)[C@H](O)[C@H]2O[C@H]2C[C@](C)(N)[C@H](O)[C@H](C)O2)Oc2ccc(cc2Cl)[C@H]1O [vancomycin] | – | – | serum concentrations exceeding safe limits in multiple patients | greater than 4,000 mcg/mL | 30 | well below the safe serum concentration
